The source of these data is US4798843A, “2-mercaproimidazole dopamine-β-hydroxylase inhibitors” (SmithKline Beckman Corporation, priority 1987, dated 1989).

The target in series [1] is T1, DBH (Homo sapiens, UniProt P09172).
T1 sequence (P09172 1-617): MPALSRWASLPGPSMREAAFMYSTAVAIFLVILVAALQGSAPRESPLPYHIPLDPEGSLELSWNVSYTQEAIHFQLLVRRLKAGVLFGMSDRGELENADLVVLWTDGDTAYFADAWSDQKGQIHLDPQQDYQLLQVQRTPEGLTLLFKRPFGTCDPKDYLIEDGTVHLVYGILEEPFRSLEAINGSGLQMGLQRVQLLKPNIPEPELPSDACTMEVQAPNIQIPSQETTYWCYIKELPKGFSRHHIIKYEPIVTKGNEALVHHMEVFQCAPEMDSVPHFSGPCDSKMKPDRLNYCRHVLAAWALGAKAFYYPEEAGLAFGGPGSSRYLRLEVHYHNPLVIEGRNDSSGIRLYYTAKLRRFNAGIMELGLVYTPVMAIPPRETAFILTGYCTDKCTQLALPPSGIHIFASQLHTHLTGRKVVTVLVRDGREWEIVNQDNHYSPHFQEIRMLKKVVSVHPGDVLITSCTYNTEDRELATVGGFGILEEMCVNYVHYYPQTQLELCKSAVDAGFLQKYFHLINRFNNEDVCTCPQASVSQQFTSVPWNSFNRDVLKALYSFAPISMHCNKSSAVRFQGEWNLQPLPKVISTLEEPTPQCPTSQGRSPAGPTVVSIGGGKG
Conditions: cited from earlier work.

Series [2] has as its target T2, DBH (Bos taurus, UniProt P15101).
T2 sequence (P15101 1-610): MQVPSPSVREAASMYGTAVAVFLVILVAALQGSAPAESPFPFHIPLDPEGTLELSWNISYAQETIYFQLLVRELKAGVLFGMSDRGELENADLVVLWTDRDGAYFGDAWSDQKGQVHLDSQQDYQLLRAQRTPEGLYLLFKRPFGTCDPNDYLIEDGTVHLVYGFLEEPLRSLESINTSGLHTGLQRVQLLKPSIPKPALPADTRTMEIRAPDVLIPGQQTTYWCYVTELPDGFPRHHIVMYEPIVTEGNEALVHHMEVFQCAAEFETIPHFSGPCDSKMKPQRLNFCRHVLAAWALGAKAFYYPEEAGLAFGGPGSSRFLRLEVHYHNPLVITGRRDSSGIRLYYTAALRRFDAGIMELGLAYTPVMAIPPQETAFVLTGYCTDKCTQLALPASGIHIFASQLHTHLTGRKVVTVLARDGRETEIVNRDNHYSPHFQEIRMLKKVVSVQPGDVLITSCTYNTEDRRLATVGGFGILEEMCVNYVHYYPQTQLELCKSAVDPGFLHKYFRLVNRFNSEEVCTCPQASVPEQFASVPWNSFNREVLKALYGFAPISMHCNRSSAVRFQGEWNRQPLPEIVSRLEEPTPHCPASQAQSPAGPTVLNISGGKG
Nature of the series: in vitro DBH inhibition, conversion of tyramine to octopamine in the presence of DBH (spectrophotometric at 330 nm). It is filed as biochemical. Conditions: for IC50: molar concentration of compound at which DBH activity was halved; for DBH inhibition: @ 10^-4 (molar concentration). How it is done: Listed in Table I are Formula II compounds that were tested for in vitro DBH inhibition by a standard procedure for assaying conversion of tyramine to octopamine in the presence of DBH. J. J. Pisano, et al., Biochim. Biophys. Acta, 43, 566-568 (1960). Octopamine was assayed following sodium periodate oxidation to p-hydroxybenzaldehyde by measuring spectrophotometric absorbance at 330 nm. In Table I, inhibition is given in molar concentration of compound at which DBH activity was halved (IC50). Fusaric acid, by this test has an IC50 of 8×10^-7 M.

Series [3] in a line: mean arterial blood pressure in spontaneously hypertensive rats. It is filed as in vivo. The note with it: 50 mg/kg intraperitoneally. Here is the method:
Further, spontaneously hypertensive rats were treated with 5-benzyl-2-mercaptoimidazole at a dose of 50 mg/kg intraperitoneally, and mean arterial blood pressure was monitored for 260 minutes using indwelling cannulae in the tail arteries. […] The maximal blood pressure reduction was approximately 25 mmHg.

For series [4] the following is noted: Ehrreich et al.; cited from earlier work.
For series [5] the following is noted: Teresawa et al.; cited from earlier work.

On to `O=C(O)c1ccc(CCCCCl)cn1` [5 (4 chlorobutyl) picolinic acid], for which the “DBH inhibition (in words)” value in series [1] is “inhibit DBH”.

Take `Oc1ccc(CCc2cnc(S)[nH]2)cc1` [5-(2-(4-Hydroxyphenyl)ethyl)-2-mercaptoimidazole]: the IC50 (usually the concentration needed to halve the response being measured) in series [2] was determined as 400 µM. In the case of `COc1ccc(CCc2cnc(S)[nH]2)cc1` [5-(2-(4-Methoxyphenyl)ethyl)-2-mercaptoimidazole], in series [2], the DBH inhibition stood at 8.4%.

Take `Sc1ncc(CCc2ccccc2)[nH]1` [5-(2-Phenylethyl)-2-mercaptoimidazole]: the IC50 in series [2] was determined as 17 µM. Turning to `O=C(O)c1ccc(CCC(Br)CBr)cn1` (centres unmarked) [5-(3,4-dibromobutyl)picolinic acid], in series [1], the “DBH inhibition (in words)” value is on record as “DBH inhibitors”.

With `Oc1ccc(CCCc2cnc(S)[nH]2)cc1` [5-(3-(4-Hydroxyphenyl)propyl)-2-mercaptoimidazole], the DBH inhibition in series [2] is on record as 29%. On the same count and under the same terms, next, `COc1ccc(CCCc2cnc(S)[nH]2)cc1` [5-(3-(4-Methoxyphenyl)propyl)-2-mercaptoimidazole]: 39%. In the case of `Sc1ncc(CCCc2ccccc2)[nH]1` [5-(3-Phenylpropyl)-2-mercaptoimidazole], the IC50 in series [2] is 10 µM. Turning to `Oc1ccc(CCCCc2cnc(S)[nH]2)cc1` [5-(4-(4-Hydroxyphenyl)butyl)-2-mercaptoimidazole], in series [2], the DBH inhibition is given as 24%.

For the molecule `COc1ccc(CCCCc2cnc(S)[nH]2)cc1` [5-(4-(4-Methoxyphenyl)butyl)-2-mercaptoimidazole], in series [2], the IC50 stood at 100 µM. Same read-out and setting: next, `Sc1ncc(-c2ccc(Cl)cc2)[nH]1` [5-(4-Chlorophenyl)-2-mercaptoimidazole]: 100 µM.

For `COc1ccc(Cc2cnc(S)[nH]2)cc1` [5-(4-Methoxybenzyl)-2-mercaptoimidazole], the DBH inhibition in series [2] worked out at 36%.

Consider `COc1ccc(-c2cnc(S)[nH]2)cc1` [5-(4-Methoxyphenyl)-2-mercaptoimidazole], for which the DBH inhibition in series [2] is 38%. Regarding `Sc1ncc(CCCCc2ccccc2)[nH]1` [5-(4-Phenylbutyl)-2-mercaptoimidazole], in series [2], the IC50 was 100 µM. Regarding `CN(C)C(=S)SCc1ccc(C(=O)O)nc1` [5-(dimethyldithiocarbamoylmethyl)picolinic acid], in series [1], the “DBH inhibition (in words)” value is reported as “DBH inhibitors”.

For the molecule `Sc1nc(-c2ccccc2)c[nH]1` [5-Phenyl-2-mercaptoimidazole], the half-maximal inhibitory concentration (IC50) in series [2] was determined as 5500 µM. Consider `Sc1ncc(Cc2ccccc2)[nH]1` [5-benzyl-2-mercaptoimidazole], for which the “time to significant blood pressure reductions vs vehicle-treated controls” value in series [3] (indwelling cannulae in tail arteries) is not above 30 min. In series [3] (monitored for 260 minutes), the “maximal blood pressure reduction” value is on record as “approximately 25 mmHg” and the “time of lowest blood pressure” value was “exhibited their lowest blood pressures when monitoring was discontinued”. As to `NOCc1ccccc1` [Benzyloxyamine], in series [1], the “DBH inhibition (in words)” value is recorded as “apparently act as competitive inhibitors”.

Take `CCCCc1ccc(C(N)=O)nc1` [Bupicomide, 5-(n-butyl)picolinamine]: the “DBH inhibition (in words)” value in series [1] is listed as “DBH inhibitor”. For the same molecule, the “antihypertensive or vasodilator activity” value in series [4] is “has antihypertensive activity”. `NCCc1ccc(O)c(O)c1` [DA, dopamine]: in series [4], the “antihypertensive or vasodilator activity” value is on record as “selective vasodilator activity at certain concentrations”. Take `CCCCc1ccc(C(=O)O)nc1` [Fusaric acid]: the hepatotoxicity result in series [5] is listed as “hepatotoxic”. With `NNCc1ccccc1` [benzylhydrazine], in series [1], the “DBH inhibition (in words)” value is “apparently act as competitive inhibitors”.

Regarding phenylpicolinic acid, the “DBH inhibitory activity relative to fusaric acid” value in series [1] (Runti et al.) is reported as “twice the inhibitory activity of fusaric acid”.
